Reference: patent US12102631B2, “Quinolylnitrones for the treatment and prevention of a cerebral stroke or ischaemia” (ISQUAEMIA BIOTECH, S.L., priority 2018, dated 2024)
“And” between values parts separate entries of the source, which are not always exact repeats. Identical values can stand only once.

Assays:
[1] = tested on: primary neuronal cultures from rat cerebral cortex; experiment: Neuroprotection (MTT cell viability) in primary neuronal cultures exposed to oxygen-glucose deprivation (OGD); assay type: cell-based; conditions: Rattus norvegicus, 24 h recovery after 4 h OGD, R24 h = 0%, control = 100%
Description: Primary neuronal cultures. Primary neuronal cultures from rat cerebral cortex were prepared as previously described.^54 All procedures associated with animal experiments were approved by the Ethics Committee of the Hospital Ramón y Cajal, Madrid (Spain). Cell suspensions from cerebral cortex were prepared from 16- to 17-day-old Sprague-Dawley rat embryos. Living cells in cell suspension were counted by trypan blue exclusion method. Cells were seeded on plastic multidishes precoated with 0.05 mg/mL poly-D-lysine at a density of 2.5×10^5 cells/cm^2 and were kept at 37° C. in a 6.5% CO2 atmosphere in high glucose Dulbecco's medium supplemented with 15% heat-inactivated (56° C. for 30 min) foetal calf serum. After 24 h, cultured cells were […] to induce experimental ischemia.^23 Cultured cells were washed and placed in glucose-free Dulbecco's medium (bubbled with 95% N2/5% CO2 for 30 min), and maintained in a humidified hypoxia chamber equipped with an oxygen and carbon dioxide control unit (Biospherix) at 6.5% CO2 and <0.1% O2 in N2 at 37° C. Cells were exposed to OGD for a period of 4 h (OGD 4 h). At the end of the OGD period, culture medium was replaced with oxygenated serum-free medium, and cells were placed and maintained in the normoxic incubator for 24 h to recovery (R24 h). In the neuroprotection experiments, the compounds were added at the onset of recovery period. Control cultures in Dulbecco's medium containing glucose were kept in the normoxic incubator for the same period of time as the OGD, and then medium (Dulbecco's/Ham's F12, 1:1 [vol/vol], 5 mg/mL glucose, 2 mM L-glutamine, and 1 mM sodium pyruvate, and supplemented with 100 μg/mL transferrin, 100 μM putrescine, 20 nM progesterone, 30 nM sodium selenite and 5 μg/mL insulin). Here, 6-7 day old cultured neurons were used in the experiments, and contained 90% β-III-tubulin-positive mature neurons, as described previously.^55
Exposure of cell cultures to oxygen-glucose deprivation and treatments. Primary neuronal cultures were exposed to […]. Control experiments included the same amounts of vehicle (final concentration<0.5% ethanol). Nitrone 2 was used as reference compound for neuroprotection. The experimental procedures were blindly performed, assigning a random order to each assayed nitrone. Nitrones were analyzed independently four-eight times with different batch of cultures and each experiment was run in quadruplicate.
Cell viability assay. Cell viability was evaluated by quantification of living, metabolically active cells, as determined by a colorimetric assay using the photometric reduction of 3-(4,5-dimethylthiazol-2-yl)-2,5-diphenyl tetrazolium bromide (MTT) (Roche) to a blue formazan product. The assay of living, metabolically active cells was performed by incubating with 0.2 mg/mL MTT in the culture medium for 1.5 h in an incubator at 37° C. in a 6.5% CO2 atm. After the incubation period, cells were lysed with an equal volume of 10 mM HCl and 10% SDS overnight. Values were quantified by absorbance (test 595 nm, reference 690 nm). Decreased MTT activity denotes impairment of mitochondrial function and is considered to be an index of cell damage. Primary neuronal cultures were collected at times indicated for MTT determination.
Neuroprotection of compounds was evaluated by a cell viability assay. The neuroprotective effect of the compounds 5-32 was evaluated on primary neuronal cultures from cerebral cortex subjected to oxygen-glucose deprivation (OGD) to induce experimental ischemia. Afterwards, cultured neurons were placed and kept in normoxic and normoglycemic conditions to recovery. […]

[2] = tested on: Carrageenan-induced rat paw edema; experiment: Inhibition of Carrageenan-induced rat paw edema; assay type: in vivo, Fisher 344 rats; conditions: 0.01 mmol/kg intraperitoneally; 3.5 h after Carrageenan
Description: Inhibition of the Carrageenan-induced edema. Edema was induced in the right hind paw of Fisher 344 rats (150-200 g) by the intradermal injection of 0.1 mL 2% Carrageenan in water. Both sexes were used. Females pregnant were excluded. Each group was composed of 6 animals. The experiment was performed twice for validation. The animals, which have been bred in our laboratory, were housed under standard conditions and received a diet of commercial food pellets and water ad libitum during the maintenance, but they were entirely fasted during the experiment period. Nitrone 23 as well as of the standard drug indomethacin in 0.01 mmol/kg body weight, were diluted in water with few drops of Tween 80 and ground in a mortar before use and they were given intraperitoneally simultaneously with the Carrageenan injection. The rats were euthanized 3.5 h after Carrageenan administration. The difference between the weight of the injected and uninjected paws was calculated for each animal. The change in paw weight was compared with that in control animals (treated with water/or Tween-water) and expressed as a percent inhibition of the edema % ICPE values (Table 2). Values % ICPE are the mean from two different experiments (n=6 animals each time) with a standard error of the mean less than 10%.

[3] = Interaction with the stable radical DPPH; assay type: biochemical; conditions: tested at 100 μM; reducing activity
Description: Interaction of the nitrone with the Stable Radical 1,1-diphenyl-picrylhydrazyl (DPPH) To a solution of DPPH in absolute ethanol the appropriate volume of the compounds (0.1 mM final concentrations) dissolved in DMSO was added. The absorbance was recorded at 517 nm after 20 and 60 min at room temperature (Table 1).
3.1. Antioxidant activity of QNs using radical DPPH. […] This purple colour generally disappears in the presence of an antioxidant due to the reduction of the DPPH radical by single electron transfer (SET) from the antioxidant converted it to colourless/bleached product. […] In this assay, we measured the initial absorbance of DPPH and the absorbance once the potential antioxidant was added. The antioxidant activity was expressed as the percentage of reducing activity.

[4] = ABTS radical cation decolorization assay; assay type: biochemical; conditions: tested at 100 μM
Description: ABTS^⋅+-decolorization assay in ethanolic solution for antioxidant activity.^32,35 ABTS is dissolved in water to a 2 mM concentration. ABTS radical cation (ABTS^⋅+) is produced by reacting the ABTS stock solution with 0.17 mM potassium persulfate in phosphate buffer (pH 7.4, 20 mM) and allowing the mixture to stand in the dark at room temperature for 12-16 h before use. For steady state measurements, […] ABTS^⋅+ was used. For the present study, the […] ABTS^⋅ solution (200 μL) was diluted with ethanol (790 μL) to an absorbance of 0.70 at 734 nm, equilibrated at room temperature, mixed with 10 μL of the tested compounds (stock solutions 10 mM) and the absorbance reading was taken at room temperature 1 min after the initial mixing. Trolox was used as a standard.
3.4. ABTS^⋅+ antioxidant activity of QNs. The ABTS^⋅+ radical cation, derived from the oxidation of 2,2′-azino-bis(3-ethylbenzothiazoline-6-sulphonic acid) (ABTS) by potassium persulfate, is a green-blue stable chromophore, which can be analyzed in the course of a decolorization assay. The addition of electron-donor antioxidants leads to ABTS^⋅+ reduction. The chemistry taking place involves the direct generation of the ABTS^⋅+ with no involvement of an intermediary radical. […] Again, and as shown, QN23 presented limited activity beside with 19, although the others nitrones had no activity (Table 3).

[5] = Inhibition of linoleic acid peroxidation (AAPH, ILPO); assay type: biochemical; conditions: tested at 100 μM
Description: Inhibition of Linoleic Acid Peroxidation.^32 For initiating the free radical, 2,2′-azobis(2-amidinopropane) dihydrochloride (AAPH) is used. The final solution in the UV cuvette consisted of ten microliters of the 16 mM linoleate sodium dispersion 0.93 mL of 0.05 M phosphate buffer, pH 7.4, thermostatted at 37° C. 50 μL of 40 mM AAPH solution was added as a free radical initiator at 37° C. under air and 10 μL of the tested compounds. The oxidation of linoleic acid sodium salt results a conjugated diene hydroperoxide. The reaction is monitored at 234 nm (Table 1).
3.3. Anti-lipid peroxidation activity of QNs. The water-soluble azo compound 2,2′-azobis(2-amidinopropane) dihydrochloride (AAPH) has been extensively used as a clean and controllable source of thermally produced alkyl peroxyl free radicals through spontaneous thermal decomposition. […] In the AAPH assay to determine the inhibition of the lipid peroxidation (ILPO), the highly reactive alkylperoxyl radicals are intercepted mainly by a hydrogen atom transfer from the antioxidant. As shown, QN23 presented limited value, where QNs 19, 22 and 24 presented very high values (Table 3).

[6] = Hydroxyl radical scavenging (competition with DMSO); assay type: biochemical; conditions: tested at 100 μM
Description: Hydroxyl Radicals Scavenging Activity.^32 The hydroxyl radicals were produced by the Fe^3+/ascorbic acid system. EDTA (0.1 mM), Fe^3+ (167 μM), DMSO (33 mM) in phosphate buffer (50 mM, pH 7.4), the tested compounds (0.1 mM) and ascorbic acid (10 mM) were mixed in test tubes. The solutions were incubated at 37° C. for 30 min. The reaction was stopped by trichloroacetic acid (17% w/v) (Table 1) and the % scavenging activity of the tested compounds for hydroxyl radicals was given.
3.2. Competition of QNs with DMSO for hydroxyl radicals. Among the ROS, the hydroxyl (·OH) free radical is possibly the most toxic, as it easily reacts with biological important molecules such as DNA, lipids or carbohydrates. Polyunsaturated fatty acids are found in high concentrations in the CNS, and are particularly vulnerable to free radicals attack. Thus, we tried to test the ability of our compound to scavenge hydroxyl radicals. […] Antioxidants with lipophilic character are needed to act as radical scavengers or as chain-breaking antioxidants in biological membranes.

Work on `Cc1ccc2c(c1)cc(/C=[N+](\[O-])Cc1ccccc1)c(Cl)[n+]2[O-]` [Compound 29, (Z)—N-Benzyl-1-(2-chloro-6-methyl-1-oxidoquinolin-3-yl)methanimine oxide] yielded a viability at 0.3 µM [1] of 8.28 ± 0.51%, a viability at 1 µM [1] of under 0% and a viability at 10 µM [1] of under 0%. It also gave a viability at 100 µM [1] of under 0% and a melting point of 163 to 165 °C.
`Cc1ccc2c(c1)cc(/C=[N+](\[O-])C(C)(C)C)c(Cl)[n+]2[O-]` [Compound 30, (Z)—N-tert-Butyl-1-(2-chloro-6-methyl-1-oxidoquinolin-3-yl)methanimine oxide] showed a viability at 0.3 µM [1] of 13 ± 0.47%, a viability at 1 µM [1] of 37.5 ± 1.94% and a viability at 10 µM [1] of under 0%. It also gave a viability at 100 µM [1] of under 0% and a melting point of 211 to 214 °C.
`COc1ccc2c(c1)c(CC(=O)O)c(C)n2C(=O)c1ccc(Cl)cc1` [Indomethacin, indomethacin, reference compound] gave an ICPE % [2] of 47 ± 1.0 %.
In the case of `CC(Cc1ccc(O)c(O)c1)C(C)Cc1ccc(O)c(O)c1` (stereo not shown) [NDGA, nordihydroguaiaretic acid, reference compound], the “DPPH (%)” value [3] is reported as 93%.
In the case of `Cc1c(C)c2c(c(C)c1O)CCC(C)(C(=O)O)O2` (stereo not shown) [Trolox, reference compound], the “ABTS*+ (%)” value [4] is reported as 91%, the “ILPO (%) / AAPH (%)” value [5] is reported as 63% and 88% and the “ILPO (%) / AAPH (%)” value ([5]; listed as trolox) is reported as 88%. The “*OH (%)” value [6] was 73%.
